Laboratory results reported in ChEMBL document CHEMBL4507324 (2021).

Key:
Settings in all cases: Compound concentration 100.0 nM
[1] = molecular target: Serine/threonine-protein kinase 35 (Homo sapiens) (UniProt Q8TDR2)
[2] = molecular target: Rho-associated protein kinase 2 (Homo sapiens) (UniProt O75116)
[3] = molecular target: Mitogen-activated protein kinase 15 (Homo sapiens) (UniProt Q8TD08)
[4] = molecular target: Bone morphogenetic protein receptor type-2 (Homo sapiens) (UniProt Q13873)
[5] = molecular target: Dual specificity mitogen-activated protein kinase kinase 5 (Homo sapiens) (UniProt Q13163)
[6] = molecular target: Mitogen-activated protein kinase kinase kinase 5 (Homo sapiens) (UniProt Q99683)
[7] = molecular target: Protein kinase C iota type (Homo sapiens) (UniProt P41743)
[8] = molecular target: High affinity nerve growth factor receptor (Homo sapiens) (UniProt P04629)
Sequence of High affinity nerve growth factor receptor (Homo sapiens) (P04629 33-796 limits assumed): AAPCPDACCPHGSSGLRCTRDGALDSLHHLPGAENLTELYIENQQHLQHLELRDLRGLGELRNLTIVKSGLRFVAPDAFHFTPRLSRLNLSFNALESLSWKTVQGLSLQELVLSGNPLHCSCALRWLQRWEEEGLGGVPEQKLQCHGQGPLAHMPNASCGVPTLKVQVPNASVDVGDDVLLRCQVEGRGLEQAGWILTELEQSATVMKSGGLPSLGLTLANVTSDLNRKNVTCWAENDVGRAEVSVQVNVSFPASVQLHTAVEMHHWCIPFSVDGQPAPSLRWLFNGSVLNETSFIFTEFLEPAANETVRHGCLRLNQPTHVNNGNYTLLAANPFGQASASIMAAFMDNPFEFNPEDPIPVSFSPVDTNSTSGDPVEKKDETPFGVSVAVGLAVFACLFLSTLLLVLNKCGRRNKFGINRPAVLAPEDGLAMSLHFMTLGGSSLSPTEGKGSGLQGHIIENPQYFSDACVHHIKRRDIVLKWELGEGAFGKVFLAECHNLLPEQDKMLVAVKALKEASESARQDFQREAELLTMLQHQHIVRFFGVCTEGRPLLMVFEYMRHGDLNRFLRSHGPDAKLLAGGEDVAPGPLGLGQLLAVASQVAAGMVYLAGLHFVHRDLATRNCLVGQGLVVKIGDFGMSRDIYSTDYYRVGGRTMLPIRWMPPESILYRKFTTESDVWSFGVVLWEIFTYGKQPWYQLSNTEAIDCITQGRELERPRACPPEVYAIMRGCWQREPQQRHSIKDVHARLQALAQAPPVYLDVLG

[9] = molecular target: Serine/threonine-protein kinase 16 (Homo sapiens) (UniProt O75716)
[10] = system: Epidermal growth factor receptor (Homo sapiens), P00533 [L858R,T790M]
[11] = molecular target: Serine/threonine-protein kinase SBK1 (Homo sapiens) (UniProt Q52WX2)
[12] = molecular target: SRSF protein kinase 2 (Homo sapiens) (UniProt P78362)
[13] = molecular target: Tyrosine-protein kinase Yes (Homo sapiens) (UniProt P07947)
[14] = molecular target: Activin receptor type-1B (Homo sapiens) (UniProt P36896)
[15] = molecular target: Cyclin-dependent kinase 2 (Homo sapiens) (UniProt P24941)
[16] = molecular target: Ephrin type-B receptor 1 (Homo sapiens) (UniProt P54762)
[17] = molecular target: Tyrosine-protein kinase Fgr (Homo sapiens) (UniProt P09769)
Sequence of Tyrosine-protein kinase Fgr (Homo sapiens) (P09769 2-529 limits assumed): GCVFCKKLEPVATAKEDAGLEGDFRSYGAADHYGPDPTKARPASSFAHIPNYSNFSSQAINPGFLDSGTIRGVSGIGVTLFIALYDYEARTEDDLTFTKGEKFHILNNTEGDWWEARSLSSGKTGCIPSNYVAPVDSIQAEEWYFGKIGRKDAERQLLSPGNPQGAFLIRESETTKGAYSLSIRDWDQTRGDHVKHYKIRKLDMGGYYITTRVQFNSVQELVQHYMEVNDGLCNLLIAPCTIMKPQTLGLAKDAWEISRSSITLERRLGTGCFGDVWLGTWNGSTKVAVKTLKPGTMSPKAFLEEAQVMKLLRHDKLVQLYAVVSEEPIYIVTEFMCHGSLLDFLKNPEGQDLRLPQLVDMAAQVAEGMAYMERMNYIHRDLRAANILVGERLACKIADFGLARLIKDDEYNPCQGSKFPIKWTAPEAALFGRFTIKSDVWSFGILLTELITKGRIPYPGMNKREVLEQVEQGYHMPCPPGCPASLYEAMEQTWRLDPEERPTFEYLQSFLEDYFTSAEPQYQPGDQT

[18] = molecular target: Serine/threonine-protein kinase PAK 6 (Homo sapiens) (UniProt Q9NQU5)
[19] = molecular target: Serine/threonine-protein kinase PLK4 (Homo sapiens) (UniProt O00444)
Sequence of Serine/threonine-protein kinase PLK4 (Homo sapiens) (O00444 whole entry): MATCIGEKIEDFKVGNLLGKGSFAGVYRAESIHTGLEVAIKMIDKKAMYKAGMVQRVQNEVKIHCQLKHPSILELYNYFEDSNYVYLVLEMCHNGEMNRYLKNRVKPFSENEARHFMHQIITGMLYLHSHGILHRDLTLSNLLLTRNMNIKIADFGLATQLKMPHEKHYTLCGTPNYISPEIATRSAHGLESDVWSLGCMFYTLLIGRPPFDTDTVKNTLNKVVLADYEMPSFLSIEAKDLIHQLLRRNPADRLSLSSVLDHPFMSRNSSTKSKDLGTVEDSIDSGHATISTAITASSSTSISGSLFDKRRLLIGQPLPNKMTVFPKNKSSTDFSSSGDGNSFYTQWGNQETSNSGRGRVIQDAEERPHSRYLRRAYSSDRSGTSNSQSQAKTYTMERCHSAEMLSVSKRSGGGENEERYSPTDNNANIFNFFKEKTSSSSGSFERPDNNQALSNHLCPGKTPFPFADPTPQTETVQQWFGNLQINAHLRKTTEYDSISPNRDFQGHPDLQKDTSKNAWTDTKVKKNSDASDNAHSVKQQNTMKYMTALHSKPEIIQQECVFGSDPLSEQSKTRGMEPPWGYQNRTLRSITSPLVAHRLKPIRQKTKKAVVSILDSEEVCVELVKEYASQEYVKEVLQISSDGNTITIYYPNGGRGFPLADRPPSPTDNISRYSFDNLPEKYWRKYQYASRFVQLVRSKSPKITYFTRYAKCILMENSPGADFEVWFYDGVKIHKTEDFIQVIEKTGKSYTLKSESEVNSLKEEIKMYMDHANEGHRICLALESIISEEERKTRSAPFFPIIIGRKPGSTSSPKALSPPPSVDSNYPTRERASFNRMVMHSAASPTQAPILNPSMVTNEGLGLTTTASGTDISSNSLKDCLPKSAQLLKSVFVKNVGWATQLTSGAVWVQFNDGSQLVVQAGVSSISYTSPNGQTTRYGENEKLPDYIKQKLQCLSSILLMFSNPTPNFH

[20] = molecular target: Mitogen-activated protein kinase 4 (Homo sapiens) (UniProt P31152)
[21] = molecular target: Tyrosine-protein kinase BTK (Homo sapiens) (UniProt Q06187)
Sequence of Tyrosine-protein kinase BTK (Homo sapiens) (Q06187 whole entry): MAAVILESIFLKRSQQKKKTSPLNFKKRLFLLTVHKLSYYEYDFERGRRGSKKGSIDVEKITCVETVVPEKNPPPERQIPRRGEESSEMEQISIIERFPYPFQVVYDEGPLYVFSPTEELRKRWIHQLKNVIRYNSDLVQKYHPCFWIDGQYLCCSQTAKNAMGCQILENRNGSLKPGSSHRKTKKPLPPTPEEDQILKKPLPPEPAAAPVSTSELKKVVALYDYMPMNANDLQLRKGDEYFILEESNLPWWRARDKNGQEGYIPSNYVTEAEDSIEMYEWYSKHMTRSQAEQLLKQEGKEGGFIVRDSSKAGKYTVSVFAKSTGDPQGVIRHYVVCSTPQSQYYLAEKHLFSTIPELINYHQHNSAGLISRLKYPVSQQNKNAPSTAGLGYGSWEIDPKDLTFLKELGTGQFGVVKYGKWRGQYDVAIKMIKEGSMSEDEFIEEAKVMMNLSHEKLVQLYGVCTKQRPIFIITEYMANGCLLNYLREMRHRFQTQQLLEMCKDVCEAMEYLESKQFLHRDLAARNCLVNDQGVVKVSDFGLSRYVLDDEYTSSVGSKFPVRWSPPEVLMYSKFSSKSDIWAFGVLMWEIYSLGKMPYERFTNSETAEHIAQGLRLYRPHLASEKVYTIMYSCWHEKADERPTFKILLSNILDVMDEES

[22] = molecular target: Serine/threonine-protein kinase TNNI3K (Homo sapiens) (UniProt Q59H18)
[23] = molecular target: Serine/threonine-protein kinase Nek5 (Homo sapiens) (UniProt Q6P3R8)
[24] = molecular target: Mitogen-activated protein kinase kinase kinase 4 (Homo sapiens) (UniProt Q9Y6R4)
[25] = molecular target: Calcium-dependent protein kinase 1 (Plasmodium falciparum) (UniProt P62344)
Sequence of Calcium-dependent protein kinase 1 (Plasmodium falciparum) (P62344 2-524 limits assumed): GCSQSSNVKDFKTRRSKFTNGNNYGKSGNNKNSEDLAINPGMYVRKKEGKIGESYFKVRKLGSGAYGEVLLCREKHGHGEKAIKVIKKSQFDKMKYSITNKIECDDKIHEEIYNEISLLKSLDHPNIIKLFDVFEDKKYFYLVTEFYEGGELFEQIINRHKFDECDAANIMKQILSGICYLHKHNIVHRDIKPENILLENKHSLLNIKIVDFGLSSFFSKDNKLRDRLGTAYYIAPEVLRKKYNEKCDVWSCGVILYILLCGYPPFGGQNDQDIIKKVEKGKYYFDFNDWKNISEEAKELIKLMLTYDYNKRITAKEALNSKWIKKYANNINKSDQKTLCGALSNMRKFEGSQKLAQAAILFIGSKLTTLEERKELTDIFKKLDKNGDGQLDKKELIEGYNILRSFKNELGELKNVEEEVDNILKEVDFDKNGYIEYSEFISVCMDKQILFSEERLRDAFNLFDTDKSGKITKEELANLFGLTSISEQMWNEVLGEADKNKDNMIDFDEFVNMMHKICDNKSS

[26] = system: Mast/stem cell growth factor receptor Kit (Homo sapiens), P10721 [A829P]
[27] = molecular target: Tyrosine-protein kinase receptor TYRO3 (Homo sapiens) (UniProt Q06418)
[28] = molecular target: Tyrosine-protein kinase receptor Tie-1 (Homo sapiens) (UniProt P35590)
[29] = molecular target: Cyclin-dependent kinase 11A (Homo sapiens) (UniProt Q9UQ88)
[30] = system: Epidermal growth factor receptor (Homo sapiens), P00533 [T790M]
[31] = molecular target: Serine/threonine-protein kinase Nek2 (Homo sapiens) (UniProt P51955)
[32] = molecular target: Serine/threonine-protein kinase 38-like (Homo sapiens, UniProt Q9Y2H1)
[33] = molecular target: Serine/threonine-protein kinase tousled-like 1 (Homo sapiens) (UniProt Q9UKI8)
[34] = molecular target: Cyclin-dependent kinase-like 1 (Homo sapiens) (UniProt Q00532)
[35] = molecular target: Serine/threonine-protein kinase N1 (Homo sapiens) (UniProt Q16512)
[36] = molecular target: Protein kinase C delta type (Homo sapiens) (UniProt Q05655)
[37] = molecular target: Receptor-interacting serine/threonine-protein kinase 2 (Homo sapiens) (UniProt O43353)
[38] = molecular target: Testis-specific serine/threonine-protein kinase 3 (Homo sapiens) (UniProt Q96PN8)
[39] = molecular target: STE20-like serine/threonine-protein kinase (Homo sapiens) (UniProt Q9H2G2)
[40] = molecular target: NUAK family SNF1-like kinase 1 (Homo sapiens) (UniProt O60285)
[41] = molecular target: Serine/threonine-protein kinase VRK2 (Homo sapiens) (UniProt Q86Y07)
[42] = molecular target: Serine/threonine-protein kinase ULK3 (Homo sapiens) (UniProt Q6PHR2)
Sequence of Serine/threonine-protein kinase ULK3 (Homo sapiens) (Q6PHR2 whole entry): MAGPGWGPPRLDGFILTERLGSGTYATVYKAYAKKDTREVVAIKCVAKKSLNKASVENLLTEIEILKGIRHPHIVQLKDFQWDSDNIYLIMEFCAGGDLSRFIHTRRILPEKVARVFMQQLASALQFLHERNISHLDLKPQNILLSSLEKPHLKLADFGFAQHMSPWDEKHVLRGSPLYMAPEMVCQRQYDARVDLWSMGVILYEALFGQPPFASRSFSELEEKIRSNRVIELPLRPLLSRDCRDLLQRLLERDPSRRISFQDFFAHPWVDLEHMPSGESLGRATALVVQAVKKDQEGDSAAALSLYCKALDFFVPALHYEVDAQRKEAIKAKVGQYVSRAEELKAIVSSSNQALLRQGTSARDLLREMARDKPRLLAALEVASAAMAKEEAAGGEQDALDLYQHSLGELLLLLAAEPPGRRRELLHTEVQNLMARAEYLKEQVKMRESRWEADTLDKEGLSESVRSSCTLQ

[43] = molecular target: Ephrin type-B receptor 3 (Homo sapiens) (UniProt P54753)
[44] = molecular target: Serine/threonine-protein kinase Nek3 (Homo sapiens) (UniProt P51956)
[45] = system: Fibroblast growth factor receptor 3 (Homo sapiens), P22607 [G697C]
[46] = system: Phosphatidylinositol 4,5-bisphosphate 3-kinase catalytic subunit alpha isoform (Homo sapiens), P42336 [M1043I]
Sequence of Phosphatidylinositol 4,5-bisphosphate 3-kinase catalytic subunit alpha isoform (Homo sapiens), P42336 [M1043I] (P42336 whole entry M1043I, canonical isoform): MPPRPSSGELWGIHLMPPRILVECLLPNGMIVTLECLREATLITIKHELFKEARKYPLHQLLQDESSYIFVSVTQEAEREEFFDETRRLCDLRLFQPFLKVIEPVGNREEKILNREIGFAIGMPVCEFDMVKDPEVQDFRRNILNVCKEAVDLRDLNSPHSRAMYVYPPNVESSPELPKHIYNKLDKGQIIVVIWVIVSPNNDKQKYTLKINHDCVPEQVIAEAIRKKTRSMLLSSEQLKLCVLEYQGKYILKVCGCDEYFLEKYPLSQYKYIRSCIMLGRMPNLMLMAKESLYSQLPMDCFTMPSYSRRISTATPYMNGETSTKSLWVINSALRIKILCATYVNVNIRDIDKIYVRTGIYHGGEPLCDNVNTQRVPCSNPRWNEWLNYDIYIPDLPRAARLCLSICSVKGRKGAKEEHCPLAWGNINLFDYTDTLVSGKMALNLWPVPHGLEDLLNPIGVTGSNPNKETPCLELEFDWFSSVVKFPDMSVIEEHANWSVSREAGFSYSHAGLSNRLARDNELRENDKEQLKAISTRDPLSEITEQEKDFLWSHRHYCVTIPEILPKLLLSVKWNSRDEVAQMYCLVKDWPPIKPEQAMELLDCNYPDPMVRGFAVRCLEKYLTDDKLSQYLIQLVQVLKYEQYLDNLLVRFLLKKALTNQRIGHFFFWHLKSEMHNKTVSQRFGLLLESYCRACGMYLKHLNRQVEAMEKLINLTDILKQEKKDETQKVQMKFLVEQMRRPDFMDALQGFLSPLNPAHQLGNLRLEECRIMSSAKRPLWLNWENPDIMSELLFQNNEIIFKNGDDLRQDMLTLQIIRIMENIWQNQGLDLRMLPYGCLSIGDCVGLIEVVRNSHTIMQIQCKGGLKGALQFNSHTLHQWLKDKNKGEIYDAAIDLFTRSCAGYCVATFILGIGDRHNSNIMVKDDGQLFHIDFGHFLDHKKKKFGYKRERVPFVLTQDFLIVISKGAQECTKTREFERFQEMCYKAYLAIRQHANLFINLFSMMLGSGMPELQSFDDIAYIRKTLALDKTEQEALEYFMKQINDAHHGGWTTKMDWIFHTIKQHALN

Measured: residual activity

CS(=O)(=O)N1CCCC(NC(=O)[C@H](CCC2CCCCC2)NC(=O)c2ccc(CNc3ncnc4c3nnn4-c3ccccc3)cc2)C1 (some centres not stated) [SR-301]
inactive: [1] 100% | [2] 100% | [3] 100% | [4] 100% | [5] 100% | [6] 100% | [7] 100% | [8] 100% | [9] 100% | [10] 84% | [11] 82% | [13] 98% | [14] 94% | [15] 100% | [16] 100% | [17] 88% | [18] 100% | [19] 82% | [20] 96% | [21] 100% | [22] 63% | [23] 95% | [24] 75% | [25] 100% | [26] 100% | [27] 90% | [28] 100% | [29] 87% | [30] 100% | [31] 100% | [33] 94% | [34] 71% | [35] 98% | [36] 80% | [37] 59% | [38] 100% | [39] 100% | [40] 100% | [41] 91% | [42] 99% | [43] 91% | [44] 100% | [45] 83% | [46] 87%
active: [12] 34% | [32] 24%

CS(=O)(=O)N1CCCC(NC(=O)[C@H](CCC2CCCCC2)NC(=O)c2ccc(CNC(=O)c3cnc4ccccn34)cc2)C1 (some centres not stated) [SR-302]
active: [32] 40% | [37] 30% | [46] 37%
inactive: [1] 100% | [2] 100% | [3] 100% | [4] 100% | [5] 97% | [6] 100% | [7] 94% | [8] 100% | [9] 100% | [10] 100% | [11] 77% | [12] 83% | [13] 88% | [14] 96% | [15] 88% | [16] 89% | [17] 87% | [18] 100% | [19] 100% | [20] 100% | [21] 100% | [22] 89% | [23] 89% | [24] 91% | [25] 78% | [26] 66% | [27] 83% | [28] 100% | [29] 100% | [30] 100% | [31] 86% | [33] 72% | [34] 91% | [35] 72% | [36] 100% | [38] 93% | [39] 99% | [40] 88% | [41] 76% | [42] 100% | [43] 87% | [44] 100% | [45] 86%
